The values that follow come from patent US7105522B2, “HIV inhibiting pyrazinone derivatives” (Janssen Pharmaceutica, N.V., priority 2001, dated 2006).

Data set [1] is described as follows: Cytotoxicity in mock-infected MT-4 cells (MTT). In kind it is cell-based. To be noted: human, OD 540 nm, read-out: CC50 (50% cytotoxic concentration). The protocol:
(§1) A rapid, sensitive and automated assay procedure was used for the in vitro evaluation of anti-HIV agents. […] Inhibition of the HIV-induced cytopathic effect was used as the end point. The viability of both HIV- and mock-infected cells was assessed spectrophotometrically via the in situ reduction of 3-(4,5-dimethylthiazol-2-yl)-2,5-diphenyltetrazolium bromide (MTT). […] The percent protection achieved by the compound in HIV-infected cells was calculated by the following formula:
(§2) [formula] whereby (ODT)HIV is the optical density measured with a given concentration of the test compound in HIV-infected cells; (ODC)HIV is the optical density measured for the control untreated HIV-infected cells; (ODC)MOCK is the optical density measured for the control untreated mock-infected cells; all optical density values were determined at 540 nm. […] The ratio of CC50 to IC50 was defined as the selectivity index (SI).

The subject of another data set is HIV-1. Kind of data set: microbe, parasite or virus in culture. The format is cell-based. To be noted: for IC50: HIV-infected MT-4 cells, MTT, OD 540 nm, read-out: IC50 (50% inhibitory concentration, dose achieving 50% protection); for SI (selectivity index, ratio of CC50 to IC50): MT-4 cells. The method, then:
A rapid, sensitive and automated assay procedure was used for the in vitro evaluation of anti-HIV agents. An […] T4-cell line, MT-4, which was previously shown (Koyanagi et al., Int. J. Cancer, 36, 445–451, 1985) to be highly susceptible to and permissive for HIV infection, served as the target cell line. Inhibition of the HIV-induced cytopathic effect was used as the end point. The viability of both HIV- and mock-infected cells was assessed spectrophotometrically via the in situ reduction of 3-(4,5-dimethylthiazol-2-yl)-2,5-diphenyltetrazolium bromide (MTT). The 50% cytotoxic concentration (CC50 in μM) was defined as the concentration of compound that reduced the absorbance of the mock-infected control sample by 50%. The percent protection achieved by the compound in HIV-infected cells was calculated by the following formula:
[formula] whereby (ODT)HIV is the optical density measured with a given concentration of the test compound in HIV-infected cells; (ODC)HIV is the optical density measured for the control untreated HIV-infected cells; (ODC)MOCK is the optical density measured for the control untreated mock-infected cells; all optical density values were determined at 540 nm. The dose achieving 50% protection according to the above formula was defined as the 50% inhibitory concentration (IC50 in μM). The ratio of CC50 to IC50 was defined as the selectivity index (SI).

For the next data set, the system named is mock-infected MT-4 cells. The experiment in a line: Cytotoxicity in mock-infected MT-4 cells (MTT). The format is cell-based. To be noted: OD 540 nm, read-out: CC50 (50% cytotoxic concentration). The protocol:
as §1, §2

Where [2] appears, read: Human immunodeficiency virus 1, MT4.

Read-outs that look alike come from different tables or passages of the source.

For the compound `Cc1ccc(Oc2cn(C)c(=O)c(Nc3ccc(Cl)cc3)n2)c(C)c1` [Compound 22, 3-[(4-chlorophenyl)amino]-5-(2,4-dimethylphenoxy)-1-methyl-2(1H)-pyrazinone], in data set [1], the CC50 turned out to be 100 µM. Moreover, the IC50 in the data set on HIV-1 (setting [2]) is 0.02 µM. Also, the “SI (selectivity index, ratio of CC50 to IC50)” value with HIV-1 is 5012.
Turning to `Cc1ccccc1Sc1cn(C)c(=O)c(Nc2ccc(C#N)cc2)n1` [Compound 4, 4-[[3,4-dihydro-4-methyl-6-[(2-methylphenyl)thio]-3-oxopyrazinyl]amino]-benzonitrile], the CC50 in data set [1] turned out to be 100 µM. Besides, the IC50 in the data set with HIV-1 (setting [2]) turned out to be 0.02 µM. Moreover, the “SI (selectivity index, ratio of CC50 to IC50)” value with HIV-1 stood at 5012.
`Cc1ccccc1Sc1nc(Nc2ccc(C#N)cc2)c(=O)n(C)c1C` [Compound 24, 4-[[3,4-dihydro-4,5-dimethyl-6-[(2-methylphenyl)thio]-3-oxopyrazinyl]amino]-benzonitrile]: in data set [1], the CC50 came to 99.9 µM. The IC50 in the data set with HIV-1 (setting [2]) was found to be 0.0251 µM. The “SI (selectivity index, ratio of CC50 to IC50)” value in the data set on HIV-1 amounted to 3981.
Regarding `Cc1ccc(Oc2cn(C)c(=O)c(Nc3ccc(C#N)cc3)n2)c(C)c1` [Compound 3, 4-[[6-(2,4-dimethylphenoxy)-3,4-dihydro-4-methyl-3-oxopyrazinyl]amino]-benzonitrile], the CC50 with mock-infected MT-4 cells worked out at 95.1 µM. In addition, the IC50 with HIV-1 came out at 0.0006 µM.
Regarding `Cc1ccccc1Sc1nc(Nc2ccc(C#N)cc2)c(=O)n(Cc2ccccc2)c1C` [Compound 27, 4-[[6-[(2-methylphenyl)thio]-5-methyl-3,4-dihydro-3-oxo-4-(phenylmethyl)pyrazinyl]amino]-benzonitrile], the melting point – broadly, the temperature, or range, at which the solid turns liquid – is 195 °C.
On to `Cc1ccc(Oc2nc(Nc3ccc(Cl)cc3)c(=O)n(C)c2C)c(C)c1` [Compound 23, 3-[(4-chlorophenyl)amino]-5-(2,4-dimethylphenoxy)-1,6-dimethyl-2(1H)-pyrazinone], for which the CC50 in data set [1] is 99.9 µM. The IC50 in the data set with HIV-1 (setting [2]) is 0.0501 µM. Also, the “SI (selectivity index, ratio of CC50 to IC50)” value with HIV-1 amounted to 1995.
`Cc1cc(C)c(S(=O)(=O)c2cn(C)c(=O)c(Nc3ccc(C#N)cc3)n2)c(C)c1` [Compound 15, 4-[[3,4-dihydro-4-methyl-3-oxo-6-[(2,4,6-trimethylphenyl)sulfonyl]pyrazinyl]amino]-benzonitrile]: the CC50 in the data set on mock-infected MT-4 cells was 99.4 µM. For the same compound, the IC50 with HIV-1 was determined as 0.0079 µM.
As to `Cc1ccc(Sc2nc(Nc3ccc(Cl)cc3)c(=O)n(C)c2C)c(C)c1` [Compound 8, 3-[(4-chlorophenyl)amino]-5-[(2,4-dimethylphenyl)thio]-1,6-dimethyl-2(1H)-pyrazinone], the CC50 in data set [1] was 100 µM. The IC50 in the data set with HIV-1 (setting [2]) is 0.501 µM. Moreover, the “SI (selectivity index, ratio of CC50 to IC50)” value in the data set on HIV-1 is 200.
For `Cc1ccc(Oc2nc(Nc3ccc(C#N)cc3)c(=O)n(C)c2C)c(C)c1` [Compound 20, 4-[[6-(2,4-dimethylphenoxy)-3,4-dihydro-4,5-dimethyl-3-oxopyrazinyl]amino]-benzonitrile], the CC50 in data set [1] came out at 99.5 µM. Also, the IC50 in the data set with HIV-1 (setting [2]) was 0.0025 µM. Further, in the data set on HIV-1, the “SI (selectivity index, ratio of CC50 to IC50)” value turned out to be 39811.
Take `Cc1ccccc1Oc1nc(Nc2ccc(C#N)cc2)c(=O)n(C)c1C` [Compound 19, 4-[[3,4-dihydro-4,5-dimethyl-6-(2-methylphenoxy)-3-oxopyrazinyl]amino]-benzonitrile]: in data set [1], the CC50 was determined as 99.8 µM. Also, the IC50 in the data set with HIV-1 (setting [2]) is 0.005 µM. Further, the “SI (selectivity index, ratio of CC50 to IC50)” value in the data set on HIV-1 stood at 19953.
Take `Cc1cc(C)c([S+]([O-])c2nc(Nc3ccc(C#N)cc3)c(=O)n(C)c2C)c(C)c1` (stereo not shown) [Compound 18]: the CC50 in data set [1] is 100 µM. Further, the IC50 in the data set on HIV-1 (setting [2]) worked out at 0.004 µM. Also, the “SI (selectivity index, ratio of CC50 to IC50)” value in the data set with HIV-1 amounted to 25119.
Regarding `Cc1cc(C)c(Sc2cn(C)c(=O)c(Nc3ccc(C#N)cc3)n2)c(C)c1` [Compound 13, 4-[[3,4-dihydro-4-methyl-3-oxo-6-[(2,4,6-trimethylphenyl)thio]pyrazinyl]amino]-benzonitrile], the CC50 in the data set on mock-infected MT-4 cells is 99.7 µM. In addition, in the data set with HIV-1, the IC50 is 0.0158 µM.
Turning to `Cc1cc(C#N)cc(C)c1Oc1nc(Nc2ccc(C#N)cc2)c(=O)n(C)c1C` [Compound 1, 4-[[6-[(4-cyanophenyl)amino]-4,5-dihydro-3,4-dimethyl-5-oxopyrazinyl]oxy]-3,5-dimethyl-benzonitrile], the CC50 in data set [1] is 99.8 µM. In the data set with HIV-1 (setting [2]), the IC50 is 0.0063 µM. Further, the “SI (selectivity index, ratio of CC50 to IC50)” value with HIV-1 stood at 15849.
The matching figures for `Cc1ccc(Oc2cn(C)c(=O)c(Nc3ccccc3)n2)c(C)c1` [Compound 7, 5-(2,4-dimethylphenoxy)-1-methyl-3-(phenylamino)-2(1H)-pyrazinone]: 99.9 µM, 0.2 µM and 501.
In turn, `Cc1ccccc1Sc1nc(Nc2ccc(C#N)cc2)c(=O)[nH]c1C` [Compound 28, 4-[[3,4-dihydro-5-methyl-6-[(2-methylphenyl)thio]-3-oxopyrazinyl]amino]-benzonitrile] gave a melting point of 290 to 291 °C.
For `Cc1ccc(Oc2cn(Cc3ccccc3)c(=O)c(Nc3ccc(C#N)cc3)n2)c(C)c1` [Compound 9, 4-[[6-(2,4-dimethylphenoxy)-3,4-dihydro-3-oxo-4-(phenylmethyl)pyrazinyl]amino]-benzonitrile], the melting point was 175 °C. Further, the CC50 in data set [1] amounted to 99.9 µM. Also, the IC50 in the data set on HIV-1 (setting [2]) stood at 0.0316 µM. The “SI (selectivity index, ratio of CC50 to IC50)” value in the data set with HIV-1 was found to be 3162.
Take `Cc1ccc(Sc2cn(C)c(=O)c(Nc3ccc(C#N)cc3)n2)c(C)c1` [Compound 21, 4-[[6-[(2,4-dimethylphenyl)thio]-3,4-dihydro-4-methyl-3-oxopyrazinyl]amino]-benzonitrile]: in the data set with mock-infected MT-4 cells, the CC50 was 99.8 µM. For the same compound, in the data set with HIV-1, the IC50 is 0.005 µM.
For the compound `Cc1cc(C)c(S(=O)(=O)c2nc(Nc3ccc(C#N)cc3)c(=O)n(C)c2C)c(C)c1` [Compound 17, 4-[[3,4-dihydro-4,5-dimethyl-3-oxo-6-[(2,4,6-trimethylphenyl)sulfonyl]pyrazinyl]amino]-benzonitrile], the CC50 in data set [1] is 99.8 µM. Moreover, the IC50 with HIV-1 (setting [2]) amounted to 0.005 µM. Also, the “SI (selectivity index, ratio of CC50 to IC50)” value in the data set on HIV-1 is recorded as 19953.
Regarding `Cc1ccccc1Oc1cn(C)c(=O)c(Nc2ccc(C#N)cc2)n1` [Compound 2, 4-[[3,4-dihydro-4-methyl-6-(2-methylphenoxy)-3-oxopyrazinyl]amino]-benzonitrile], in the data set with mock-infected MT-4 cells, the CC50 came out at 100 µM. Besides, the IC50 in the data set on HIV-1 turned out to be 0.004 µM.
Regarding `Cc1ccc(S(=O)(=O)c2nc(Nc3ccc(C#N)cc3)c(=O)n(C)c2C)c(C)c1` [Compound 16, 4-[[6-[(2,4-dimethylphenyl)sulfonyl]-3,4-dihydro-4,5-dimethyl-3-oxopyrazinyl]amino]-benzonitrile], in data set [1], the CC50 was 99.9 µM. Besides, the IC50 with HIV-1 (setting [2]) amounted to 0.0316 µM. In addition, the “SI (selectivity index, ratio of CC50 to IC50)” value in the data set with HIV-1 was determined as 3162.
In the same order, the values of `Cc1ccccc1Oc1nc(Nc2ccc(Cl)cc2)c(=O)n(C)c1C` [Compound 6, 3-[(4-chlorophenyl)amino]-1,6-dimethyl-5-(2-methylphenoxy)-2(1H)-pyrazinone] are 100 µM, 0.1 µM and 1000.
For `Cc1cc(C)c(Sc2cn(C)c(=O)c(Nc3ccc(Cl)cc3)n2)c(C)c1` [Compound 14, 3-[(4-chlorophenyl)amino]-1-methyl-5-[(2,4,6-trimethylphenyl)thio]-2(1H)-pyrazinone], the CC50 in data set [1] is 99.9 µM. Moreover, the IC50 in the data set with HIV-1 (setting [2]) was determined as 0.0794 µM. Moreover, the “SI (selectivity index, ratio of CC50 to IC50)” value with HIV-1 was found to be 1259.
In the same order, the values of `Cc1ccc(Oc2cn(C)c(=O)c(Nc3ccc(C(F)(F)F)cc3)n2)c(C)c1` [Compound 11, 5-(2,4-dimethylphenoxy)-1-methyl-3-[[4-(trifluoromethyl)phenyl]amino]-2(1H)-pyrazinone] are 100 µM, 0.501 µM and 200.
